# Tested on: MIA PaCa-2 cells
# Assay: DNA microarray analysis (Affymetrix Human PrimeView)
# Type: cell-based
smiles,measurement,setting,value
"C=C(CC[C@@H](C(=O)O)[C@H]1[C@H](O)C[C@@]2(C)C3=C(CC[C@]12C)[C@@]1(C)CC[C@H](OC(C)=O)C(C)(C)[C@@H]1CC3)C(C)C [PA, Pachymic acid]","Fold-Change (MiaPaca-2 * PA vs. MiaPaca-2 * control), HSPA1B",probeset 11729120_x_at,1.90
same,"Mean (MiaPaca-2 * PA), HSPA1B",probeset 11729120_x_at,11.15
same,"Fold-Change (MiaPaca-2 * PA vs. MiaPaca-2 * control), ADAMTS4",probeset 11730923_x_at,2.20
same,"Mean (MiaPaca-2 * PA), ADAMTS4",probeset 11730923_x_at,8.77
same,"Fold-Change (MiaPaca-2 * PA vs. MiaPaca-2 * control), RCAN1",probeset 11733797_a_at,1.68
same,"Mean (MiaPaca-2 * PA), RCAN1",probeset 11733797_a_at,9.17
same,"Fold-Change (MiaPaca-2 * PA vs. MiaPaca-2 * control), SOCS2",probeset 11735148_a_at,1.78
same,"Mean (MiaPaca-2 * PA), SOCS2",probeset 11735148_a_at,6.08
same,"Fold-Change (MiaPaca-2 * PA vs. MiaPaca-2 * control), C17orf91",probeset 11736304_a_at,1.70
same,"Mean (MiaPaca-2 * PA), C17orf91",probeset 11736304_a_at,6.00
same,"Fold-Change (MiaPaca-2 * PA vs. MiaPaca-2 * control), C17orf91",probeset 11736305_x_at,1.71
same,"Mean (MiaPaca-2 * PA), C17orf91",probeset 11736305_x_at,6.44
same,"Fold-Change (MiaPaca-2 * PA vs. MiaPaca-2 * control), SERPINB8",probeset 11737922_a_at,2.08
same,"Mean (MiaPaca-2 * PA), SERPINB8",probeset 11737922_a_at,8.90
same,"Fold-Change (MiaPaca-2 * PA vs. MiaPaca-2 * control), FLJ36031",probeset 11739443_a_at,1.69
same,"Mean (MiaPaca-2 * PA), FLJ36031",probeset 11739443_a_at,6.38
same,"Fold-Change (MiaPaca-2 * PA vs. MiaPaca-2 * control), TNFRSF9",probeset 11740393_at,2.27
same,"Mean (MiaPaca-2 * PA), TNFRSF9",probeset 11740393_at,8.01
same,"Fold-Change (MiaPaca-2 * PA vs. MiaPaca-2 * control), GBP3",probeset 11741911_a_at,1.86
same,"Mean (MiaPaca-2 * PA), GBP3",probeset 11741911_a_at,6.08
same,"Fold-Change (MiaPaca-2 * PA vs. MiaPaca-2 * control), CXCL2",probeset 11744127_at,2.45
same,"Mean (MiaPaca-2 * PA), CXCL2",probeset 11744127_at,10.98
same,"Fold-Change (MiaPaca-2 * PA vs. MiaPaca-2 * control), CXCL2",probeset 11744128_x_at,2.30
same,"Mean (MiaPaca-2 * PA), CXCL2",probeset 11744128_x_at,11.01
same,"Fold-Change (MiaPaca-2 * PA vs. MiaPaca-2 * control), HSPA1A",probeset 11744413_x_at,2.45
same,"Mean (MiaPaca-2 * PA), HSPA1A",probeset 11744413_x_at,10.47
same,"Fold-Change (MiaPaca-2 * PA vs. MiaPaca-2 * control), SAMD4A",probeset 11745209_a_at,1.79
same,"Mean (MiaPaca-2 * PA), SAMD4A",probeset 11745209_a_at,6.54
same,"Fold-Change (MiaPaca-2 * PA vs. MiaPaca-2 * control), SERPINE1",probeset 11746856_a_at,1.78
same,"Mean (MiaPaca-2 * PA), SERPINE1",probeset 11746856_a_at,7.81
same,"Fold-Change (MiaPaca-2 * PA vs. MiaPaca-2 * control), UPP1",probeset 11747820_x_at,1.93
same,"Mean (MiaPaca-2 * PA), UPP1",probeset 11747820_x_at,8.45
same,"Fold-Change (MiaPaca-2 * PA vs. MiaPaca-2 * control), SERPINB8",probeset 11748180_a_at,2.13
same,"Mean (MiaPaca-2 * PA), SERPINB8",probeset 11748180_a_at,10.10
same,"Fold-Change (MiaPaca-2 * PA vs. MiaPaca-2 * control), UPP1",probeset 11748775_a_at,1.75
same,"Mean (MiaPaca-2 * PA), UPP1",probeset 11748775_a_at,10.33
same,"Fold-Change (MiaPaca-2 * PA vs. MiaPaca-2 * control), FOS",probeset 11749291_a_at,1.74
same,"Mean (MiaPaca-2 * PA), FOS",probeset 11749291_a_at,6.87
same,"Fold-Change (MiaPaca-2 * PA vs. MiaPaca-2 * control), GBP1",probeset 11749773_x_at,1.92
same,"Mean (MiaPaca-2 * PA), GBP1",probeset 11749773_x_at,5.41
same,"Fold-Change (MiaPaca-2 * PA vs. MiaPaca-2 * control), CYR61",probeset 11749905_a_at,2.32
same,"Mean (MiaPaca-2 * PA), CYR61",probeset 11749905_a_at,9.84
same,"Fold-Change (MiaPaca-2 * PA vs. MiaPaca-2 * control), HSPA1A /// HSPA1B",probeset 11750411_x_at,2.09
same,"Mean (MiaPaca-2 * PA), HSPA1A /// HSPA1B",probeset 11750411_x_at,10.73
same,"Fold-Change (MiaPaca-2 * PA vs. MiaPaca-2 * control), MIR17HG",probeset 11752442_a_at,1.88
same,"Mean (MiaPaca-2 * PA), MIR17HG",probeset 11752442_a_at,6.16
same,"Fold-Change (MiaPaca-2 * PA vs. MiaPaca-2 * control), GBP1",probeset 11752931_x_at,1.83
same,"Mean (MiaPaca-2 * PA), GBP1",probeset 11752931_x_at,5.47
same,"Fold-Change (MiaPaca-2 * PA vs. MiaPaca-2 * control), EGR1",probeset 11752940_a_at,1.69
same,"Mean (MiaPaca-2 * PA), EGR1",probeset 11752940_a_at,10.59
same,"Fold-Change (MiaPaca-2 * PA vs. MiaPaca-2 * control), DUSP1",probeset 11752993_a_at,1.78
same,"Mean (MiaPaca-2 * PA), DUSP1",probeset 11752993_a_at,7.26
same,"Fold-Change (MiaPaca-2 * PA vs. MiaPaca-2 * control), TNFSF4",probeset 11753073_a_at,1.71
same,"Mean (MiaPaca-2 * PA), TNFSF4",probeset 11753073_a_at,5.89
same,"Fold-Change (MiaPaca-2 * PA vs. MiaPaca-2 * control), SLC3A2",probeset 11753435_x_at,1.69
same,"Mean (MiaPaca-2 * PA), SLC3A2",probeset 11753435_x_at,8.06
same,"Fold-Change (MiaPaca-2 * PA vs. MiaPaca-2 * control), IL8",probeset 11754026_a_at,2.84
same,"Mean (MiaPaca-2 * PA), IL8",probeset 11754026_a_at,11.16
same,"Fold-Change (MiaPaca-2 * PA vs. MiaPaca-2 * control), CXCL1",probeset 11754114_a_at,2.46
same,"Mean (MiaPaca-2 * PA), CXCL1",probeset 11754114_a_at,11.01
same,"Fold-Change (MiaPaca-2 * PA vs. MiaPaca-2 * control), HBEGF",probeset 11755981_a_at,1.90
same,"Mean (MiaPaca-2 * PA), HBEGF",probeset 11755981_a_at,4.80
same,"Fold-Change (MiaPaca-2 * PA vs. MiaPaca-2 * control), HSPA6 /// HSPA7",probeset 11757367_s_at,19.93
same,"Mean (MiaPaca-2 * PA), HSPA6 /// HSPA7",probeset 11757367_s_at,9.17
same,"Fold-Change (MiaPaca-2 * PA vs. MiaPaca-2 * control), NFKBIZ",probeset 11757513_at,2.08
same,"Mean (MiaPaca-2 * PA), NFKBIZ",probeset 11757513_at,10.08
same,"Fold-Change (MiaPaca-2 * PA vs. MiaPaca-2 * control), DDIT3",probeset 11758347_s_at,1.70
same,"Mean (MiaPaca-2 * PA), DDIT3",probeset 11758347_s_at,7.10
same,"Fold-Change (MiaPaca-2 * PA vs. MiaPaca-2 * control), MIR17HG",probeset 11758429_s_at,1.80
same,"Mean (MiaPaca-2 * PA), MIR17HG",probeset 11758429_s_at,4.78
same,"Fold-Change (MiaPaca-2 * PA vs. MiaPaca-2 * control), TNFSF18",probeset 11759254_at,1.84
same,"Mean (MiaPaca-2 * PA), TNFSF18",probeset 11759254_at,8.90
same,"Fold-Change (MiaPaca-2 * PA vs. MiaPaca-2 * control), NCRNA00275",probeset 11759550_at,1.82
same,"Mean (MiaPaca-2 * PA), NCRNA00275",probeset 11759550_at,7.61
same,"Fold-Change (MiaPaca-2 * PA vs. MiaPaca-2 * control), SAT1",probeset 11760200_a_at,1.75
same,"Mean (MiaPaca-2 * PA), SAT1",probeset 11760200_a_at,6.19
same,"Fold-Change (MiaPaca-2 * PA vs. MiaPaca-2 * control), EBNA1BP2",probeset 11760295_at,1.73
same,"Mean (MiaPaca-2 * PA), EBNA1BP2",probeset 11760295_at,4.62
same,"Fold-Change (MiaPaca-2 * PA vs. MiaPaca-2 * control), GRAMD1B",probeset 11762010_a_at,1.80
same,"Mean (MiaPaca-2 * PA), GRAMD1B",probeset 11762010_a_at,7.49
same,"Fold-Change (MiaPaca-2 * PA vs. MiaPaca-2 * control), CASP1",probeset 11763186_at,1.70
same,"Mean (MiaPaca-2 * PA), CASP1",probeset 11763186_at,5.56
same,"Fold-Change (MiaPaca-2 * PA vs. MiaPaca-2 * control), IL8",probeset 11763226_x_at,2.95
same,"Mean (MiaPaca-2 * PA), IL8",probeset 11763226_x_at,11.12
same,"Fold-Change (MiaPaca-2 * PA vs. MiaPaca-2 * control), CXCL1 /// CXCL2",probeset 11763250_x_at,2.26
same,"Mean (MiaPaca-2 * PA), CXCL1 /// CXCL2",probeset 11763250_x_at,10.74
same,"Fold-Change (MiaPaca-2 * PA vs. MiaPaca-2 * control), GRAMD1B",probeset 11763323_x_at,1.71
same,"Mean (MiaPaca-2 * PA), GRAMD1B",probeset 11763323_x_at,6.75

# Reference: paper PMC4411097, “Pachymic Acid Inhibits Growth and Induces Apoptosis of Pancreatic Cancer In Vitro and In Vivo by Targeting ER Stress” (PLoS ONE, 2015)
